Assay results taken from US20260193294A1, “POLYPEPTIDE INHIBITOR, AND PREPARATION METHOD THEREFOR AND USE THEREOF” (SHANGHAI HANSOH BIOMEDICAL CO., LTD., priority 2022, published 2026).
Positions of bridges follow the written chain, without caps; N, C: chain ends. Non-standard residues stand in square brackets, D forms with d. Residues, ends and D or L forms follow the SMILES beside them. Trp(7-Me) = Cc1cccc2c(C[C@H](N)C(=O)O)c[nH]c12; 2Nal = N[C@@H](Cc1ccc2ccccc2c1)C(=O)O; Thp(SO2) = NC1(C(=O)O)CCS(=O)(=O)CC1; AEF = NCCOc1ccc(C[C@H](N)C(=O)O)cc1; Ac6c(4-thia) = NC1(C(=O)O)CCSCC1; 3Pal = N[C@@H](Cc1cccnc1)C(=O)O; Pen = CC(C)(S)[C@H](N)C(=O)O; Sar = CNCC(=O)O

What was measured:
IL23R = target: T1, IL23R (Homo sapiens, UniProt Q5VWK5); experiment: Competing with IL23 for binding to IL23R (HTRF, IL23/IL23R binding assay kit); details: 2 hours incubation at room temperature
T1 construct: Tag2 (identity not disclosed); purchased PerkinElmer 64BDPIL23PEH
T1 sequence (Q5VWK5 24-355 limits assumed): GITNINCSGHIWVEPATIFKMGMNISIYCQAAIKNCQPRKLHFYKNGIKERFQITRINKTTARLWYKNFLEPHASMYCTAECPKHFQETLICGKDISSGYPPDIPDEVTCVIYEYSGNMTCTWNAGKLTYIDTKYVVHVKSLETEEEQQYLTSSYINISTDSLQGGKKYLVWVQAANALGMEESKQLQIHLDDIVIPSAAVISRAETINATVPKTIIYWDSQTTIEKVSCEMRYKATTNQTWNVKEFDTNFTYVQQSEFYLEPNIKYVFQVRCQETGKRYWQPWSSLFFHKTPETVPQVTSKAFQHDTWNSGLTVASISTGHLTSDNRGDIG
Method: (§1) The compounds of the present disclosure were screened in IL23/IL23R BINDING ASSAY KITS (PerkinElmer Cat #64BDPIL23PEH). The screening of the compounds of the present disclosure was carried out by using a multi-well plate (suitable for HTRF determination). Generally, 2 μl of several compounds of the present disclosure and STANDARD SOLUTIONS in KIT were first respectively added to the wells of the multi-well plate. 4 μl of Tag1-IL23, 4 μl of Tag2-IL23R, and 10 μL of pre-mixed Anti-Tag1 Eu Cryptate Antibody and Anti-Tag2 d2 reagent were necessarily added to all the wells. The multi-well plate was protected from light by an opaque cover membrane, and the opaque cover membrane was then removed
as §1, with “removed after 2 hours of incubation at room temperature. The signal value was read by an HTRF-compatible detection instrument to detect IC50 value.” for “removed”
(§2) The inhibition rate was calculated as follows: […]
By using log (inhibitor) vs. response—Variable slope (four parameters) in Graphpad, the data of HTRF experiment results were subjected to non-linear regression fitting to fit a curve and obtain the IC50 value.

[1] = test system: activation of STAT3 phosphorylation by hIL23 in DB cells; experiment: Blocking the activation of STAT3 phosphorylation by hIL23 in DB cells (p-STAT3 ELISA); type: cell-based, Human; details: DB cells stimulated by rhIL-23 0.5 nM, half an hour; read-out: pStat3 IC50
Method: To determine the inhibitory activity of the compounds of the present disclosure on the activation of STAT3 phosphorylation by hIL23 in DB cells
The compounds produced above were added to DB (ATCC Cat #CRL-2289) cells to inhibit the signal transduction of rhIL-23 cytokine. The screening of compounds was carried out by a multi-well plate (suitable for ELISA assay). Generally, in the presence of some of the above compounds of the present disclosure, 6.25×10^6 cells/ml of DB cells were stimulated by rhIL-23 (0.5 nM, R&D SYSTEMS) in RPMI medium (Invitrogen) containing 10% of FBS, and after half an hour, lysis was carried out on ice using 50 μL of 2×lysis buffer (CST). The content of p-STAT3 in the lysate was determined by PathScan Phospho-Stat3 (Tyr705) Sandwich ELISA Kit (CST Cat #7300C), so as to calculate the activity of the compounds of the present disclosure in blocking rhIL23 signal transduction in DB cells.
as §2
By using log (inhibitor) vs. response—Variable slope (four parameters) in Graphpad, the data of ELISA experiment results were subjected to non-linear regression fitting to fit a curve and obtain the IC50 value.

| Structure (SMILES) | IC50 (IL23R) [nM] | IC50 [1] [nM] |
| --- | --- | --- |
| CC(=O)NCCCC[C@@H]1NC(=O)[C@H](Cc2c[nH]c3c(C)cccc23)NC(=O)[C@H]([C@@H](C)O)NC(=O)[C@H](CC(N)=O)NC(=O)[C@@H](NC(C)=O)C(C)(C)SSC(C)(C)[C@@H](C(=O)N[C@@H](Cc2ccc(OCCN)cc2)C(=O)N[C@@H](Cc2ccc3ccccc3c2)C(=O)NC2(C(=O)N[C@@H](CCC(=O)O)C(=O)N[C@@H](CC(N)=O)C(=O)N[C@@H](Cc3cccnc3)C(=O)N(C)CCNC(=O)CCCCC[N+](C)(C)C)CCS(=O)(=O)CC2)NC1=O [Example 4-19] | 1.18 |  |
| CC(=O)NCCCC[C@@H]1NC(=O)[C@H](Cc2c[nH]c3c(C)cccc23)NC(=O)[C@H]([C@@H](C)O)NC(=O)[C@H](CC(N)=O)NC(=O)[C@@H](NC(C)=O)C(C)(C)SSC(C)(C)[C@@H](C(=O)N[C@@H](Cc2ccc(OCCN)cc2)C(=O)N[C@@H](Cc2ccc3ccccc3c2)C(=O)NC2(C(=O)N[C@@H](CCC(=O)O)C(=O)N[C@@H](CC(N)=O)C(=O)N[C@@H](Cc3cccnc3)C(=O)N(C)CCNC(=O)CCCCC[N+](C)(C)C)CCSCC2)NC1=O [Example 3-19] | 1.13 |  |
| CC(=O)NCCCC[C@@H]1NC(=O)[C@H](Cc2c[nH]c3c(C)cccc23)NC(=O)[C@H]([C@@H](C)O)NC(=O)[C@H](CC(N)=O)NC(=O)[C@@H](NC(C)=O)C(C)(C)SSC(C)(C)[C@@H](C(=O)N[C@@H](Cc2ccc(OCCN)cc2)C(=O)N[C@@H](Cc2ccc3ccccc3c2)C(=O)NC2(C(=O)N[C@@H](CCC(=O)O)C(=O)N[C@@H](CC(N)=O)C(=O)N[C@@H](Cc3cccnc3)C(=O)N(C)CC(N)=O)CCS(=O)(=O)CC2)NC1=O [Example 4-14] (Ac-[Pen]NT[Trp(7-Me)]K(Ac)[Pen][AEF][2Nal][Thp(SO2)]EN[3Pal][Sar]-NH2; disulfide 1-6) | 1.11 | 0.0016 |
| CC(=O)NCCCC[C@@H]1NC(=O)[C@H](Cc2c[nH]c3c(C)cccc23)NC(=O)[C@H]([C@@H](C)O)NC(=O)[C@H](CC(N)=O)NC(=O)[C@@H](NC(C)=O)C(C)(C)SSC(C)(C)[C@@H](C(=O)N[C@@H](Cc2ccc(OCCN)cc2)C(=O)N[C@@H](Cc2ccc3ccccc3c2)C(=O)NC2(C(=O)N[C@@H](CCC(=O)O)C(=O)N[C@@H](CC(N)=O)C(=O)N[C@@H](Cc3ccncc3)C(=O)N(C)CC(N)=O)CCC(F)(F)CC2)NC1=O [Example 1-14] | 1.14 |  |
| CC(=O)NCCCC[C@@H]1NC(=O)[C@H](Cc2c[nH]c3c(C)cccc23)NC(=O)[C@H]([C@@H](C)O)NC(=O)[C@H](CC(N)=O)NC(=O)[C@@H](NC(C)=O)C(C)(C)SSC(C)(C)[C@@H](C(=O)N[C@@H](Cc2ccc(OCCN)cc2)C(=O)N[C@@H](Cc2ccc3ccccc3c2)C(=O)NC2(C(=O)N[C@@H](CCC(=O)O)C(=O)N[C@@H](CC(N)=O)C(=O)N[C@@H](Cc3cccnc3)C(=O)N(C)CCNC(=O)CCCCC[N+](C)(C)C)CCOCC2)NC1=O [Example 12] | 1.14 |  |
| CC(=O)NCCCC[C@@H]1NC(=O)[C@H](Cc2c[nH]c3c(C)cccc23)NC(=O)[C@H]([C@@H](C)O)NC(=O)[C@H](CC(N)=O)NC(=O)[C@@H](NC(C)=O)C(C)(C)SSC(C)(C)[C@@H](C(=O)N[C@@H](Cc2ccc(OCCN)cc2)C(=O)N[C@@H](Cc2ccc3ccccc3c2)C(=O)NC2(C(=O)N[C@@H](CCC(=O)O)C(=O)N[C@@H](CC(N)=O)C(=O)N[C@@H](Cc3cccnc3)C(=O)N(C)CCNC(=O)COCCOCCNC(=O)COCCOCCNC(=O)CC[C@H](NC(=O)CCCCCCCCCCCCCCCCC(=O)O)C(=O)O)CCOCC2)NC1=O [Example 6] | 1.25 |  |
| CC(=O)NCCCC[C@@H]1NC(=O)[C@H](Cc2c[nH]c3c(C)cccc23)NC(=O)[C@H]([C@@H](C)O)NC(=O)[C@H](CC(N)=O)NC(=O)[C@@H](NC(C)=O)C(C)(C)SSC(C)(C)[C@@H](C(=O)N[C@@H](Cc2ccc(OCCN)cc2)C(=O)N[C@@H](Cc2ccc3ccccc3c2)C(=O)NC2(C(=O)N[C@@H](CCC(=O)O)C(=O)N[C@@H](CC(N)=O)C(=O)N[C@@H](Cc3cccnc3)C(=O)N(C)CC(N)=O)CCSCC2)NC1=O [Example 3-14] (Ac-[Pen]NT[Trp(7-Me)]K(Ac)[Pen][AEF][2Nal][Ac6c(4-thia)]EN[3Pal][Sar]-NH2; disulfide 1-6) | 1.09 | 0.0014 |
| CC(=O)NCCCC[C@@H]1NC(=O)[C@H](Cc2c[nH]c3c(C)cccc23)NC(=O)[C@H]([C@@H](C)O)NC(=O)[C@H](CC(N)=O)NC(=O)[C@@H](NC(C)=O)C(C)(C)SSC(C)(C)[C@@H](C(=O)N[C@@H](Cc2ccc(OCCN)cc2)C(=O)N[C@@H](Cc2ccc3ccccc3c2)C(=O)NC2(C(=O)N[C@@H](CCC(=O)O)C(=O)N[C@@H](CC(N)=O)C(=O)N[C@@H](Cc3cccnc3)C(=O)N(C)CCNC(=O)CCOCCOCC[N+](C)(C)C)CCOCC2)NC1=O [Example 3] | 1.23 |  |
| CC(=O)NCCCC[C@@H]1NC(=O)[C@H](Cc2c[nH]c3c(C)cccc23)NC(=O)[C@H]([C@@H](C)O)NC(=O)[C@H](CC(N)=O)NC(=O)[C@@H](NC(C)=O)C(C)(C)SSC(C)(C)[C@@H](C(=O)N[C@@H](Cc2ccc(OCCN)cc2)C(=O)N[C@@H](Cc2ccc3ccccc3c2)C(=O)NC2(C(=O)N[C@@H](CCC(=O)O)C(=O)N[C@@H](CC(N)=O)C(=O)N[C@@H](Cc3cccnc3)C(=O)N(C)CCNC(=O)CCCCC[N+](C)(C)C)CCC(F)(F)CC2)NC1=O [Example 1-19] | 1.35 |  |
| CCCCCCC(=O)NCCCCCCCC(=O)NCC[N+](C)(C)CCOCCOCCC(=O)NCCN(C)C(=O)[C@H](Cc1cccnc1)NC(=O)[C@H](CC(N)=O)NC(=O)[C@H](CCC(=O)O)NC(=O)C1(NC(=O)[C@H](Cc2ccc3ccccc3c2)NC(=O)[C@H](Cc2ccc(OCCN)cc2)NC(=O)[C@H]2NC(=O)[C@H](CCCCNC(C)=O)NC(=O)[C@H](Cc3c[nH]c4c(C)cccc34)NC(=O)[C@H]([C@@H](C)O)NC(=O)[C@H](CC(N)=O)NC(=O)[C@@H](NC(C)=O)C(C)(C)SSC2(C)C)CCOCC1 [Example 2] | 0.23 | 0.01 |
